PubChem BioAssay (NCI)
Where “and” joins values, the source holds several entries; their conditions need not be identical. Equal values may be shown once.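 How tested: cells in 96-well plates exposed to compound for 48 hours at five concentrations. At the GI50, growth is halved. At the TGI there is no net growth.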

Tests used:
Experiment in all cases: DTP human tumour cell line panel, 48 h
[1] = test system: 786-0 renal
[2] = test system: SK-MEL-28 melanoma
[3] = test system: MDA-MB-435
[4] = test system: MCF7 breast
[5] = test system: OVCAR-5 ovarian
[6] = test system: TK-10 renal
[7] = test system: U251 CNS
[8] = test system: RPMI-8226 leukemia
[9] = test system: SK-MEL-5 melanoma
[10] = test system: EKVX NSCLC
[11] = test system: NCI-H522 lung
[12] = test system: BT-549 breast
[13] = test system: SF-295 CNS
[14] = test system: SF-268 CNS
[15] = test system: COLO 205 colon
[16] = test system: M14 melanoma
[17] = test system: HCT-116 colon
[18] = test system: MALME-3M melanoma
[19] = test system: PC-3 prostate
[20] = test system: OVCAR-3 ovarian
[21] = test system: SNB-75 CNS
[22] = test system: NCI-H460 lung
[23] = test system: HT29 colon
[24] = test system: SF-539 CNS
[25] = test system: CCRF-CEM leukemia
[26] = test system: OVCAR-4 ovarian
[27] = test system: UACC-62 melanoma
[28] = test system: ACHN renal
[29] = test system: UACC-257 melanoma
[30] = test system: OVCAR-8 ovarian
[31] = test system: IGROV1 ovarian
[32] = test system: SR leukemia
[33] = test system: MDA-MB-231 breast
[34] = test system: HOP-92 NSCLC
[35] = test system: A498 renal
[36] = test system: HL-60(TB) leukemia
[37] = test system: SK-MEL-2 melanoma
[38] = test system: MOLT-4 leukemia
[39] = test system: A549 NSCLC
[40] = test system: KM12 colon
[41] = test system: MDA-N
[42] = test system: T-47D breast
[43] = test system: DU-145 prostate
[44] = test system: SN12C renal
[45] = test system: HS 578T breast
[46] = test system: HCC-2998 colon
[47] = test system: CAKI-1 renal
[48] = test system: SK-OV-3 ovarian
[49] = test system: K-562 leukemia
[50] = test system: SNB-19 CNS
[51] = test system: NCI-H226 lung
[52] = test system: RXF 393 renal
[53] = test system: HCT-15 colon
[54] = test system: HOP-62 NSCLC
[55] = test system: NCI/ADR-RES ovarian
[56] = test system: UO-31 renal
[57] = test system: LOX IMVI melanoma
[58] = test system: SW-620 colon
[59] = test system: NCI-H23 lung
[60] = test system: DMS 114 small cell lung
[61] = test system: KM20L2 colon
[62] = test system: SNB-78 CNS
[63] = test system: M19-MEL melanoma
[64] = test system: DMS 273 small cell lung
[65] = test system: HOP-18 NSCLC
[66] = test system: DLD-1 colon
[67] = test system: LXFL 529 NSCLC

## CN(C)CCOc1ccc(/C(=C(/CCCl)c2ccccc2)c2ccccc2)cc1
[1]
  GI50: 906 nM
[2]
  GI50: 912 nM
[3]
  GI50: 894 nM
[4]
  GI50: 565 nM
[5]
  GI50: 1520 nM
  TGI: 5.09 µM and 33.5 µM
[6]
  GI50: 991 nM
[7]
  GI50: 815 nM
[8]
  GI50: 1030 nM
  TGI: 2.5 µM and 23.6 µM
[9]
  GI50: 784 nM
[10]
  GI50: 1810 nM
  TGI: 21 µM and 29.4 µM
[11]
  GI50: 900 nM
[12]
  GI50: 976 nM
  TGI: 1800 nM
[13]
  GI50: 1020 nM
[14]
  GI50: 1510 nM
  TGI: 17.4 µM and 33 µM
[15]
  GI50: 858 nM
[16]
  GI50: 960 nM
[17]
  GI50: 1590 nM
  TGI: 5.33 µM and 30.4 µM
[18]
  GI50: 976 nM
[19]
  GI50: 901 nM
[20]
  GI50: 928 nM
[21]
  GI50: 1110 nM
  TGI: 4.48 µM and 24.2 µM
[22]
  GI50: 845 nM
[23]
  GI50: 598 nM
[24]
  GI50: 891 nM
[25]
  GI50: 1060 nM
  TGI: 2.85 µM and 23.5 µM
[26]
  GI50: 1470 nM
  TGI: 5.1 µM and 32.9 µM
[27]
  GI50: 891 nM
  TGI: 1.66 µM
[28]
  GI50: 1800 nM
  TGI: 6.55 µM and 31.9 µM
[29]
  GI50: 943 nM
[30]
  GI50: 1080 nM
[31]
  GI50: 1330 nM
[32]
  GI50: 1180 nM
  TGI: 3.13 µM and 10 µM
[33]
  GI50: 1070 nM
[34]
  TGI: 17.1 µM
[35]
  GI50: 885 nM
  TGI: 3.12 µM
[36]
  GI50: 1060 nM
  TGI: 2.11 µM and 15 µM
[37]
  GI50: 975 nM
[38]
  GI50: 1120 nM
[39]
  GI50: 1270 nM
  TGI: 3.24 µM and 29.9 µM
[40]
  GI50: 1180 nM
  TGI: 12.8 µM and 32.4 µM
[41]
  TGI: 30.2 µM
[42]
  GI50: 841 nM
[43]
  GI50: 1880 nM
  TGI: 18.1 µM and 33.2 µM
[44]
  GI50: 1570 nM
  TGI: 6.01 µM and 30.3 µM
[45]
  GI50: 895 nM
[46]
  GI50: 776 nM
[47]
  GI50: 979 nM
  TGI: 3.73 µM and 29.7 µM
[48]
  GI50: 1620 nM
  TGI: 5.07 µM
[49]
  GI50: 1020 nM
  TGI: 2.46 µM and 23.6 µM
[50]
  GI50: 1850 nM
  TGI: 22.6 µM and 28.5 µM
[51]
  GI50: 1340 nM
  TGI: 13.4 µM and 39.3 µM
[52]
  GI50: 698 nM
  TGI: 1.4 µM
[53]
  GI50: 1950 nM
  TGI: 7.87 µM and 28.1 µM
[54]
  GI50: 993 nM
[55]
  GI50: 1600 nM
  TGI: 4.95 µM and 30.7 µM
[56]
  GI50: 900 nM
  TGI: 13.8 µM and 30.9 µM
[57]
  GI50: 819 nM
[58]
  GI50: 898 nM
[59]
  GI50: 1420 nM
  TGI: 5.52 µM and 31.3 µM

## COc1cc(-c2cc(=O)c3c(O)c(OC)c(OC)c(OC)c3o2)ccc1O
[1]
  TGI: > 100 µM
[2]
  TGI: > 100 µM
[5]
  TGI: > 100 µM
[6]
  TGI: 78.3 µM
[7]
  TGI: > 100 µM
[8]
  TGI: > 100 µM
[60]
  TGI: 77.8 µM
[61]
  TGI: > 100 µM
[9]
  TGI: 47.8 µM
[10]
  TGI: > 100 µM
[11]
  TGI: 44.7 µM
[13]
  TGI: 60.5 µM
[14]
  TGI: > 100 µM
[16]
  TGI: 81.7 µM
[17]
  TGI: > 100 µM
[18]
  TGI: > 100 µM
[20]
  TGI: > 100 µM
[62]
  TGI: 70.1 µM
[22]
  TGI: 69.2 µM
[24]
  TGI: 35.9 µM
[25]
  TGI: > 100 µM
[27]
  TGI: 34.4 µM
[28]
  TGI: > 100 µM
[29]
  TGI: > 100 µM
[30]
  TGI: 48.4 µM
[31]
  TGI: 37.2 µM
[32]
  TGI: > 100 µM
[63]
  TGI: > 100 µM
[34]
  TGI: 40.1 µM
[35]
  TGI: 17.6 µM
[64]
  TGI: 30.5 µM
[36]
  TGI: 61.6 µM
[37]
  TGI: 46.1 µM
[38]
  TGI: 93.5 µM
[65]
  TGI: > 100 µM
[39]
  TGI: 90.7 µM
[40]
  TGI: > 100 µM
[66]
  TGI: > 100 µM
[44]
  TGI: 79 µM
[46]
  TGI: > 100 µM
[67]
  TGI: > 100 µM
[48]
  TGI: 76 µM
[49]
  TGI: > 100 µM
[50]
  TGI: > 100 µM
[52]
  TGI: 48 µM
[53]
  TGI: 43.1 µM
[54]
  TGI: 77.3 µM
[56]
  TGI: > 100 µM
[57]
  TGI: 68.8 µM
[58]
  TGI: > 100 µM
[59]
  TGI: > 100 µM
